Measurements from patent US7622475B2, “EP2 agonists” (Pfizer Inc, priority 2006, dated 2009).

Legend:
ciliary muscle = settings: topical ocular QD for 1 year; treated and contralateral eyes; cited from earlier work
[1] = system: ocular hypertensive non-human primates; test: IOP change after topical application in ocular hypertensive non-human primates; assay type: in vivo; settings: for Tmax: time point of maximum IOP reduction
Method: Tables 2 and 3 describe the intraocular pressure (IOP) changes that were seen following topical application of EP2 agonists in ocular hypertensive non-human primates. Typically, compounds in suitable formulations were dosed topically and IOP was measured using tonometry. Changes in IOP between vehicle treatment followed by treatment with EP2 compounds were assessed over time in the dosed hypertensive eye. ΔΔ Emax reflects the difference in IOP from EP2 compound-treated eye over that seen for vehicle-treated eye at the timepoint wherein maximum IOP reduction for compound was seen. The percent ΔΔ Emax was the percentage change in IOP reduction conferred by compound over that for vehicle (set at 100%). Tmax represents the time point at which maximum IOP reduction of compound was observed. […] NS represents not significant. Table 2 compares acids of EP2 compound while Table 3 compares IOP response seen with esters of certain acids. Esters provide better corneal penetration and improved drug exposure in the anterior chamber compared to acids and are therefore dosed at ⅕th the dose for acids […].

[2] = system: ocular hypertensive non-human primates; test: as above; assay type: in vivo; settings: isopropylesters, OHT primates, NT eye
[3] = target: recombinant murine EP2 receptor (Mus musculus, UniProt Q62053); settings: fraction of the affinity of PGE2; cited from earlier work
recombinant murine EP2 receptor, sequence (Q62053 whole entry): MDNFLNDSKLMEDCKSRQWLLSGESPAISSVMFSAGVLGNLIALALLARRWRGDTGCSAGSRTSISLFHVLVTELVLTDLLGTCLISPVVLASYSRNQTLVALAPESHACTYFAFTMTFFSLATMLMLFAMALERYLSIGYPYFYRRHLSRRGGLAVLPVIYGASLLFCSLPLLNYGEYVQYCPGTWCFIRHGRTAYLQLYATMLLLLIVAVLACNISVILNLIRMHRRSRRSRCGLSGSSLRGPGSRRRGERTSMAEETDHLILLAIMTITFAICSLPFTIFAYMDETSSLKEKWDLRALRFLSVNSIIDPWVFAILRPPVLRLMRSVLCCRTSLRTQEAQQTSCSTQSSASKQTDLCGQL

[4] = system: other murine EP receptors or DP, TP, FP or IP receptors; settings: cited from earlier work
newborn piglets = settings: brief hypoxia, in the presence of PG synthase inhibitors; cited from earlier work
EP2 = EP2 (Homo sapiens, UniProt P43116); set-up: expressed in transfected cells; host or cells: COS cells; settings: COS cells transfected with the human EP2 receptor; read-out: EC50 for the stimulation of cAMP; cited from earlier work
EP2, sequence (P43116 whole entry): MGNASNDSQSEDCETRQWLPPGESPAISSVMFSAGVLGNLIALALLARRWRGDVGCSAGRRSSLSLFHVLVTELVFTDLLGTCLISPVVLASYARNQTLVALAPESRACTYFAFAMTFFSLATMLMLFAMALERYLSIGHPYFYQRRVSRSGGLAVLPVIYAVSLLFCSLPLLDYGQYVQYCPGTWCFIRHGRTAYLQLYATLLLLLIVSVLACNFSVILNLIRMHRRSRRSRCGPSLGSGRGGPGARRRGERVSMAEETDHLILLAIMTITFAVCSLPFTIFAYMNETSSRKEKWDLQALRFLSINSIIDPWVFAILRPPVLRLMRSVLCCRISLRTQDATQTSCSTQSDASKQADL

[5] = system: murine astrocyte cultures; settings: cited from earlier work

CCCCCC(O)c1ccc(C2CCC(=O)C2CCCCCCC(=O)O)cc1 (stereo not drawn) [AH-13205]
number of nerve bundles in ciliary muscle (ciliary muscle): doubling in the number of nerve bundles in ciliary muscle

CC(C)OC(=O)COc1cccc(CN(Cc2ccc(-n3cccn3)cc2)S(=O)(=O)c2cccnc2)c1 [drawing 61]
ΔΔEmax (mmHg) ([1]; isopropylesters, OHT primates, OHT eye, 0.1 mg/ml topical): −14 mmHg | Tmax ([1]; isopropylesters, OHT primates): 6 h | ΔΔEmax (mmHg) [2]: −7.5 mmHg

CCCC1([C@H](O)C/C=C/[C@H]2[C@H](O)CC(=O)[C@@H]2CCCCCCC(=O)OC)CCC1 (racemic) [Butaprost, (+/−)-15-Deoxy-16S-hydroxy-17-cyclobutyl PGE1]
change in vivo at 0.1 % ([1]; Primates, topical, acid EP2 agonists, Conc 0.1 %, topical, vs vehicle (set at 100%), read-out: ΔΔEmax (%)): -18% | ΔΔEmax (mm Hg) ([1]; acid EP2 agonists, Conc 0.1 %, topical, dosed hypertensive eye vs vehicle): −5.5 mm Hg | Tmax ([1]; acid EP2 agonists, Conc 0.1 %): 5 h | affinity relative to PGE2 [3]: about 1/10 | binding to other prostanoid receptors [4]: does not bind appreciably | electrophysiological changes (VEPs and ERGs) (newborn piglets): restoration of electrophysiological changes | EC50 (EP2): ~5 µM

CCCCC[C@H](O)/C=C/[C@H]1[C@H](O)CC(=O)[C@@H]1C/C=C\CCCC(=O)O [PGE2, prostaglandin E2]
synthesis and secretion of BDNF and NGF [5]: stimulate synthesis and secretion of brain-derived neurotrophic factor (BDNF) and nerve growth factor (NGF)
